Columns and labels:
Assay type in all cases: in vivo
Setaria faberi (SETFA) [1] = test: Pre-emergence biological efficacy, glasshouse pot test; conditions: 312 h
Outline: (§1)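 Standard soil, pots, sown then sprayed at day 1 with 1000 or 250 g/ha test compound. Glasshouse: 24/16 °C, 14 h photoperiod, 65% humidity, twice-daily watering. Evaluation day 13, 0–100 damage score.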

Solanum nigrum (SOLNI) [2] = test: as above; conditions: 312 h
Outline: as §1

[3] = tested on: Echinochloa crus-galli (ECHCG); test: as above; conditions: 312 h
Outline: as §1

[4] = tested on: Ipomea hederaceae (IPOHE); test: as above; conditions: Ipomoea hederacea, 312 h
Outline: as §1

[5] = tested on: Alopecurus myosuroides (ALOMY); test: as above; conditions: 312 h
Outline: as §1

[6] = tested on: Amaranthus retoflexus (AMARE); test: as above; conditions: Amaranthus retroflexus, 312 h
Outline: as §1

Setaria faberi (SETFA) [7] = test: Post-emergence biological efficacy, glasshouse pot test; conditions: 312 h
Outline: (§2)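 Scored 13 days after spraying on a 0 (no damage) to 100 (total damage) scale. Treatment was a post-emergence spray at 1000 or 250 g/ha, from acetone/water 50:50 plus 0.5% Tween 20, onto 8-day-old plants in soil pots. Growth at 24/16° C, 14 h photoperiod, 65% humidity, watered twice daily.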

Solanum nigrum (SOLNI) [8] = test: as above; conditions: 312 h
Outline: as §2

[9] = tested on: Echinochloa crus-galli (ECHCG); test: as above; conditions: 312 h
Outline: as §2

[10] = tested on: Ipomea hederaceae (IPOHE); test: as above; conditions: Ipomoea hederacea, 312 h
Outline: as §2

[11] = tested on: Alopecurus myosuroides (ALOMY); test: as above; conditions: 312 h
Outline: as §2

[12] = tested on: Amaranthus retoflexus (AMARE); test: as above; conditions: Amaranthus retroflexus, 312 h
Outline: as §2

[13] = pre-emergence, rate 1,000 g/ha, evaluated after 13 days (100=total damage to plant; 0=no damage), read-out: Percentage damage caused to weed species, SETFA
[14] = pre-emergence, rate 1,000 g/ha, evaluated after 13 days (100=total damage to plant; 0=no damage), read-out: Percentage damage caused to weed species, SOLNI
[15] = pre-emergence, rate 1,000 g/ha, evaluated after 13 days (100=total damage to plant; 0=no damage), read-out: Percentage damage caused to weed species, ECHCG
[16] = pre-emergence, rate 1,000 g/ha, evaluated after 13 days (100=total damage to plant; 0=no damage), read-out: Percentage damage caused to weed species, IPOHE
[17] = pre-emergence, rate 1,000 g/ha, evaluated after 13 days (100=total damage to plant; 0=no damage), read-out: Percentage damage caused to weed species, ALOMY
[18] = pre-emergence, rate 1,000 g/ha, evaluated after 13 days (100=total damage to plant; 0=no damage), read-out: Percentage damage caused to weed species, AMARE
[19] = Rate 1,000 g/ha, post-emergence spray, evaluated after 13 days (100=total damage to plant; 0=no damage to plant), read-out: Percentage damage caused to weed species, post-emergence, SETFA
[20] = Rate 1,000 g/ha, post-emergence spray, evaluated after 13 days (100=total damage to plant; 0=no damage to plant), read-out: Percentage damage caused to weed species, post-emergence, SOLNI
[21] = Rate 1,000 g/ha, post-emergence spray, evaluated after 13 days (100=total damage to plant; 0=no damage to plant), read-out: Percentage damage caused to weed species, post-emergence, ECHCG
[22] = Rate 1,000 g/ha, post-emergence spray, evaluated after 13 days (100=total damage to plant; 0=no damage to plant), read-out: Percentage damage caused to weed species, post-emergence, IPOHE
[23] = Rate 1,000 g/ha, post-emergence spray, evaluated after 13 days (100=total damage to plant; 0=no damage to plant), read-out: Percentage damage caused to weed species, post-emergence, ALOMY
[24] = Rate 1,000 g/ha, post-emergence spray, evaluated after 13 days (100=total damage to plant; 0=no damage to plant), read-out: Percentage damage caused to weed species, post-emergence, AMARE

Structure (SMILES): COC(=O)c1nc(C2CC2)nc(NCc2cccc(-c3ccccc3)c2)c1Cl [Compound 4-95, 5-Chloro-2-cyclopropyl-6-methoxycarbonyl-4-(3-phenylphenyl-methylamino)-pyrimidine]
- pest or weed control at 1000 g/ha (Setaria faberi (SETFA) [1]; pre-emergence, 1,000 g/ha, evaluated after 13 days (100=total damage; 0=no damage), read-out: Percentage damage SETFA): 10%
- pest or weed control at 1000 g/ha (Solanum nigrum (SOLNI) [2]; pre-emergence, 1,000 g/ha, evaluated after 13 days (100=total damage; 0=no damage), read-out: Percentage damage SOLNI): 30%
- pest or weed control at 1000 g/ha ([3]; pre-emergence, 1,000 g/ha, evaluated after 13 days (100=total damage; 0=no damage), read-out: Percentage damage ECHCG): 10%
- pest or weed control at 1000 g/ha ([4]; pre-emergence, 1,000 g/ha, evaluated after 13 days (100=total damage; 0=no damage), read-out: Percentage damage IPOHE): 30%
- pest or weed control at 1000 g/ha ([5]; pre-emergence, 1,000 g/ha, evaluated after 13 days (100=total damage; 0=no damage), read-out: Percentage damage ALOMY): 10%
- pest or weed control at 1000 g/ha ([6]; pre-emergence, 1,000 g/ha, evaluated after 13 days (100=total damage; 0=no damage), read-out: Percentage damage AMARE): 60%
- pest or weed control at 1000 g/ha (Setaria faberi (SETFA) [7]; post-emergence, 1,000 g/ha, evaluated after 13 days (100=total damage; 0=no damage), read-out: Percentage damage caused to weed species, SETFA): 60%
- pest or weed control at 1000 g/ha (Solanum nigrum (SOLNI) [8]; post-emergence, 1,000 g/ha, evaluated after 13 days (100=total damage; 0=no damage), read-out: Percentage damage caused to weed species, SOLNI): 80%
- pest or weed control at 1000 g/ha ([9]; post-emergence, 1,000 g/ha, evaluated after 13 days (100=total damage; 0=no damage), read-out: Percentage damage caused to weed species, ECHCG): 60%
- pest or weed control at 1000 g/ha ([10]; post-emergence, 1,000 g/ha, evaluated after 13 days (100=total damage; 0=no damage), read-out: Percentage damage caused to weed species, IPOHE): 100%
- pest or weed control at 1000 g/ha ([11]; post-emergence, 1,000 g/ha, evaluated after 13 days (100=total damage; 0=no damage), read-out: Percentage damage caused to weed species, ALOMY): 20%
- pest or weed control at 1000 g/ha ([12]; post-emergence, 1,000 g/ha, evaluated after 13 days (100=total damage; 0=no damage), read-out: Percentage damage caused to weed species, AMARE): 90%

Structure (SMILES): CCN(Cc1c(F)cccc1Cl)c1nc(C2CC2)nc(C(=O)OC)c1Cl [Compound 6-102, 5-Chloro-4-[N-(2-chloro-6-fluorophenylmethyl)-N-ethyl-amino]-2-cyclopropyl-6-methoxycarbonyl-pyrimidine]
- pest or weed control at 1000 g/ha (Setaria faberi (SETFA) [1]; [13]): 0%
- pest or weed control at 1000 g/ha (Solanum nigrum (SOLNI) [2]; [14]): 60%
- pest or weed control at 1000 g/ha [3, 15]: 0%
- pest or weed control at 1000 g/ha [4, 16]: 60%
- pest or weed control at 1000 g/ha [5, 17]: 0%
- pest or weed control at 1000 g/ha [6, 18]: 100%
- pest or weed control at 1000 g/ha (Setaria faberi (SETFA) [7]; [19]): 80%
- pest or weed control at 1000 g/ha (Solanum nigrum (SOLNI) [8]; [20]): 90%
- pest or weed control at 1000 g/ha [9, 21]: 70%
- pest or weed control at 1000 g/ha [10, 22]: 90%
- pest or weed control at 1000 g/ha [11, 23]: 20%
- pest or weed control at 1000 g/ha [12, 24]: 100%

Structure (SMILES): CCN(Cc1ccccc1F)c1nc(C2CC2)nc(C(=O)OC)c1Cl [Compound 6-64, 5-Chloro-2-cyclopropyl-4-[N-ethyl-N-(2-fluoro-phenyl)methyl-amino]-6-methoxycarbonyl-pyrimidine]
- pest or weed control at 1000 g/ha (Setaria faberi (SETFA) [1]; [13]): 30%
- pest or weed control at 1000 g/ha (Solanum nigrum (SOLNI) [2]; [14]): 20%
- pest or weed control at 1000 g/ha [3, 15]: 20%
- pest or weed control at 1000 g/ha [4, 16]: 50%
- pest or weed control at 1000 g/ha [5, 17]: 10%
- pest or weed control at 1000 g/ha [6, 18]: 60%
- pest or weed control at 1000 g/ha (Setaria faberi (SETFA) [7]; [19]): 90%
- pest or weed control at 1000 g/ha (Solanum nigrum (SOLNI) [8]; [20]): 100%
- pest or weed control at 1000 g/ha [9, 21]: 70%
- pest or weed control at 1000 g/ha [10, 22]: 100%
- pest or weed control at 1000 g/ha [11, 23]: 30%
- pest or weed control at 1000 g/ha [12, 24]: 100%

Structure (SMILES): CCOC(=O)c1nc(C2CC2)nc(NCc2ccco2)c1Cl [Compound 7-125, 5-Chloro-2-cyclopropyl-6-ethoxycarbonyl-4-(2-furanylmethyl-amino)pyrimidine]
- pest or weed control at 1000 g/ha (Setaria faberi (SETFA) [1]; [13]): 80%
- pest or weed control at 1000 g/ha (Solanum nigrum (SOLNI) [2]; [14]): 100%
- pest or weed control at 1000 g/ha [3, 15]: 90%
- pest or weed control at 1000 g/ha [4, 16]: 100%
- pest or weed control at 1000 g/ha [5, 17]: 60%
- pest or weed control at 1000 g/ha [6, 18]: 100%
- pest or weed control at 1000 g/ha (Setaria faberi (SETFA) [7]; [19]): 90%
- pest or weed control at 1000 g/ha (Solanum nigrum (SOLNI) [8]; [20]): 90%
- pest or weed control at 1000 g/ha [9, 21]: 80%
- pest or weed control at 1000 g/ha [10, 22]: 100%
- pest or weed control at 1000 g/ha [11, 23]: 90%
- pest or weed control at 1000 g/ha [12, 24]: 100%

— patent US20110086759A1, “CHEMICAL COMPOUNDS” (SYNGENTA CROP PROTECTION, INC., priority 2007, published 2011)
